This assay deals with NF-κB. Put plainly: NF-κB luciferase reporter assay in LPS-stimulated RAW 264.7 macrophages. The assay is classed as cell-based. The following applies: Mus musculus, RAW264.7; RAW 264.7 cells with 3× NFkB response element luciferase reporter; 2 hour pretreatment, 200 ng/ml LPS for 3 hours; 6 dose point titrations in triplicate. As for the experimental part:
RAW 264.7 cells stably expressing a 3× NFkB response elemement-drive luciferase reporter were seeded into 96 well plates in sera-free medium (Optimem) 18 hours prior to compound application. Compounds of the invention were prepared by first making 100 mM stock solutions in EtOH. Stock solutions were then diluted 1:100 in low LPS FBS (Gemini BenchMark 100-106), mixed vigorously and allowed to incubate at room temperature for 30 minutes. 1:2 serial dilutions were then made in FBS supplemented with 1% EtOH, mixed vigorously, and again allowed to incubate at room temperature for 30 minutes before adding to RAW 264.7 reporter cells (final concentrations: 10% FBS, 100 uM highest compound dilution, 0.1% EtOH) for a 2 hour pretreatment prior to stimulation with LPS. Cells were then stimulated with 200 ng/ml LPS or vehicle control for 3 hours in the presence of the compounds of the invention. A set of six vehicles was left unstimulated with LPS in order to measure the assay floor. […] After the 3 h incubation period with LPS, cell viability was measured by reading fluorescence (excitation 550 nm, emission 595 nm) with a Perkin Elmer Victor V plate reader. […] Luciferase activity was measured with the Perkin Elmer Victor V plate reader. NF-κB activity was expressed as a percent of the vehicle control wells (stimulated with LPS). […]
In general terms: Reporter assays use an easily measured gene product as a stand-in for the process of interest.

Molecules are shown by their SMILES.

The IC50 is the concentration that inhibits the measured activity by half.

For the molecule `CC/C=C\C/C=C\C/C=C\C/C=C\C/C=C\C/C=C\CCC(=O)NCCNC(=O)Oc1ccc2c(C(=O)c3ccc(OCCN4CCOCC4)cc3)c(-c3ccc(O)cc3)sc2c1` [III-4, 2-(4-hydroxyphenyl)-3-(4-(2-morpholinoethoxy)benzoyl)benzo[b]thiophen-6-yl 2-(4Z,7Z,10Z,13Z,16Z,19Z)-docosa-4,7,10,13,16,19-hexaenamidoethylcarbamate], the IC50 is roughly 50 µM.

These data come from patent publication US20110212958A1, “FATTY ACID RALOXIFENE DERIVATIVES AND THEIR USES” (CATABASIS PHARMACEUTICALS, INC., priority 2010, published 2011).
